# Source: patent publication US10167262B2, “Herbicidal substituted 3-arylpyrazoles” (FMC CORPORATION, priority 2014, dated 2019)
# Assays:
# Assay type in all cases: in vivo
# [1] = test system: blackgrass (Alopecurus myosuroides); assay: Test D postemergence controlled growth environment test, plant response rating 0-100
# From the text: (§1) Seeds of plant species selected from bluegrass (annual bluegrass, Poa annua), blackgrass (Alopecurus myosuroides), canarygrass (Phalaris minor), chickweed (common chickweed, Stellaria media), galium (catchweed bedstraw, Galium aparine), downy bromegrass (Bromus tectorum), field violet (Viola arvensis), green foxtail (Setaria viridis), deadnettle (henbit deadnettle, Lamium amplexicaule), Italian ryegrass (Lolium multiflorum), kochia (Kochia scoparia), lambsquarters (Chenopodium album), oilseed rape (Brassica napus), pigweed (Amaranthus retroflexus), Russian thistle (Salsola kali), spring barley (Hordeum vulgare), spring wheat (Triticum aestivum), wild buckwheat (Polygonum convolvulus), wild mustard (Sinapis arvensis), wild oat (Avena fatua), windgrass (Apera spica-venti), winter barley (Hordeum vulgare), and winter wheat (Triticum aestivum) were planted in pots containing Redi-Earth® planting medium (Scotts Company, 14111 Scottslawn Road, Marysville, Ohio 43041) comprising spaghnum peat moss, vermiculite, wetting agent and starter nutrients and treated with postemergence applications of test chemicals formulated in a non-phytotoxic solvent mixture which included a surfactant. Plants ranged in height from 2 to 18 cm (1- to 4-leaf stage). Treated plants and controls were maintained in a controlled growth environment for 14 days after which time all species were compared to controls and visually evaluated. Plant response ratings, summarized in Table D, are based on a scale of 0 to 100 where 0 is no effect and 100 is complete control. A dash (-) response means no test result.
# [2] = test system: oilseed rape (Brassica napus); assay: as above
# From the text: as §1
# [3] = test system: pigweed (Amaranthus retroflexus); assay: as above
# From the text: as §1
# wild oat (Avena fatua) = assay: as above
# From the text: as §1
# [4] = test system: large (Lg) crabgrass (Digitaria sanguinalis); assay: Test E pre-/postemergence greenhouse test, plant response rating 0-100; conditions: Preemergence, scale 0 to 100
# kochia (Kochia scoparia) = assay: as above; conditions: Preemergence, scale 0 to 100
# Procedure, shortened: (§2)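 Visual control score, 0–100 relative to untreated plants, recorded 14–21 days after spraying. Treatments: preemergence on silt loam seedbeds and postemergence at the 1- to 4-leaf stage, with compound in surfactant-containing solvent.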
# [5] = test system: lambsquarters (Chenopodium album); assay: as above; conditions: Preemergence, scale 0 to 100
# Procedure, shortened: as §2
# [6] = test system: nightshade (eastern black nightshade, Solanum ptycanthum); assay: as above; conditions: Preemergence, scale 0 to 100
# Procedure, shortened: as §2
# [7] = test system: ragweed (common ragweed, Ambrosia elatior); assay: as above; conditions: Preemergence, scale 0 to 100
# Procedure, shortened: as §2
# [8] = test system: surinam grass (Brachiaria decumbens); assay: as above; conditions: Preemergence, scale 0 to 100
# Procedure, shortened: as §2
# [9] = test system: velvetleaf (Abutilon theophrasti); assay: as above; conditions: Preemergence, scale 0 to 100
# Procedure, shortened: as §2
compound,measurement,setting,value
"C#CCn1cc(C(=O)c2ccccc2)c(-c2cc(Cl)cc(Cl)c2)n1 [Compound 39, [3-(3,5-dichlorophenyl)-1-(2-propyn-1-yl)-1H-pyrazol-4-yl]phenylmethanone]","Plant response rating, Blackgrass",[1]; 16 g ai/ha,0
same,"Plant response rating, Blackgrass",[1]; 31 g ai/ha,0
same,"Plant response rating, Blackgrass",[1]; 62 g ai/ha,0
same,"Plant response rating, Blackgrass",[1]; 125 g ai/ha,0
same,"Plant response rating, Blackgrass",[1]; 250 g ai/ha,20
same,"Plant response rating, Oilseed Rape",[2]; 16 g ai/ha,0
same,"Plant response rating, Oilseed Rape",[2]; 31 g ai/ha,0
same,"Plant response rating, Oilseed Rape",[2]; 62 g ai/ha,10
same,"Plant response rating, Oilseed Rape",[2]; 125 g ai/ha,20
same,"Plant response rating, Oilseed Rape",[2]; 250 g ai/ha,60
same,"Plant response rating, Pigweed",[3]; 16 g ai/ha,30
same,"Plant response rating, Pigweed",[3]; 31 g ai/ha,30
same,"Plant response rating, Pigweed",[3]; 62 g ai/ha,50
same,"Plant response rating, Pigweed",[3]; 125 g ai/ha,75
same,"Plant response rating, Pigweed",[3]; 250 g ai/ha,80
same,"Plant response rating, Oat, Wild",wild oat (Avena fatua); 16 g ai/ha,0
same,"Plant response rating, Oat, Wild",wild oat (Avena fatua); 31 g ai/ha,0
same,"Plant response rating, Oat, Wild",wild oat (Avena fatua); 62 g ai/ha,0
same,"Plant response rating, Oat, Wild",wild oat (Avena fatua); 125 g ai/ha,0
same,"Plant response rating, Oat, Wild",wild oat (Avena fatua); 250 g ai/ha,0
same,"Crabgrass, Large plant response rating",[4]; 62 g ai/ha,0
same,"Crabgrass, Large plant response rating",[4]; 125 g ai/ha,0
same,"Crabgrass, Large plant response rating",[4]; 250 g ai/ha,0
same,"Crabgrass, Large plant response rating",[4]; 500 g ai/ha,0
same,Kochia plant response rating,kochia (Kochia scoparia); 62 g ai/ha,0
same,Kochia plant response rating,kochia (Kochia scoparia); 125 g ai/ha,30
same,Kochia plant response rating,kochia (Kochia scoparia); 250 g ai/ha,65
same,Kochia plant response rating,kochia (Kochia scoparia); 500 g ai/ha,75
same,Lambsquarters plant response rating,[5]; 62 g ai/ha,90
same,Lambsquarters plant response rating,[5]; 125 g ai/ha,95
same,Lambsquarters plant response rating,[5]; 250 g ai/ha,90
same,Lambsquarters plant response rating,[5]; 500 g ai/ha,100
same,Nightshade plant response rating,[6]; 62 g ai/ha,0
same,Nightshade plant response rating,[6]; 125 g ai/ha,0
same,Nightshade plant response rating,[6]; 250 g ai/ha,100
same,Nightshade plant response rating,[6]; 500 g ai/ha,95
same,Ragweed plant response rating,[7]; 62 g ai/ha,60
same,Ragweed plant response rating,[7]; 125 g ai/ha,0
same,Ragweed plant response rating,[7]; 250 g ai/ha,65
same,Ragweed plant response rating,[7]; 500 g ai/ha,30
same,Surinam Grass plant response rating,[8]; 62 g ai/ha,0
same,Surinam Grass plant response rating,[8]; 125 g ai/ha,0
same,Surinam Grass plant response rating,[8]; 250 g ai/ha,0
same,Surinam Grass plant response rating,[8]; 500 g ai/ha,0
same,Velvetleaf plant response rating,[9]; 62 g ai/ha,15
same,Velvetleaf plant response rating,[9]; 125 g ai/ha,75
same,Velvetleaf plant response rating,[9]; 250 g ai/ha,90
same,Velvetleaf plant response rating,[9]; 500 g ai/ha,100
